Experimental data published in PMC4917279 (Journal of Medicinal Chemistry, 2016).

How the values were obtained:
TRKC = target: T1, TRKC (Homo sapiens, UniProt Q16288); experiment: KINOMEscan; assay type: binding; conditions: read-out: %Ctrl @ 1000 nM
T1 construct: purchased DiscoveRx KINOMEscan

VEGFR2 = target: T2, VEGFR2 (Homo sapiens, UniProt P35968); experiment: KINOMEscan; assay type: binding; conditions: read-out: %Ctrl @ 1000 nM
T2 construct: purchased DiscoveRx KINOMEscan

YSK4 = target: T3, YSK4 (Homo sapiens, UniProt Q56UN5); experiment: KINOMEscan; assay type: binding; conditions: read-out: %Ctrl @ 1000 nM
T3 construct: purchased DiscoveRx

EPHB6 = target: T4, EPHB6 (Homo sapiens, UniProt O15197); experiment: KINOMEscan; assay type: binding; conditions: read-out: %Ctrl @ 1000 nM
T4 construct: purchased DiscoveRx KINOMEscan

[1] = target: T5, ABL1(E255K)-phosphorylated (Homo sapiens, UniProt P00519, E255K); experiment: KINOMEscan; assay type: binding; conditions: read-out: %Ctrl @ 1000 nM
T5 construct: purchased DiscoveRx (KINOMEscan service)

CDC2L2 = target: T6, CDC2L2 (Homo sapiens, UniProt Q9UQ88); experiment: KINOMEscan; assay type: binding; conditions: read-out: %Ctrl @ 1000 nM
T6 construct: purchased DiscoveRx KINOMEscan

PRKD1 = target: T7, PRKD1 (Homo sapiens, UniProt Q15139); experiment: KINOMEscan; assay type: binding; conditions: read-out: %Ctrl @ 1000 nM
T7 construct: purchased DiscoveRx KINOMEscan

GCN2(Kin.Dom.2,S808G) = target: T8, GCN2(Kin.Dom.2,S808G) (Homo sapiens, UniProt Q9P2K8, S808G); experiment: KINOMEscan; assay type: binding; conditions: read-out: %Ctrl @ 1000 nM
T8 construct: GCN2(Kin.Dom.2,S808G); purchased DiscoveRx KINOMEscan

BMPR1A = target: T9, BMPR1A (Homo sapiens, UniProt P36894); experiment: KINOMEscan; assay type: binding; conditions: read-out: %Ctrl @ 1000 nM
T9 construct: purchased DiscoveRx KINOMEscan

ADCK3 = target: T10, ADCK3 (Homo sapiens, UniProt Q8NI60); experiment: KINOMEscan; assay type: binding; conditions: read-out: %Ctrl @ 1000 nM
T10 construct: purchased DiscoveRx KINOMEscan

FGFR3(G697C) = target: T11, FGFR3(G697C) (Homo sapiens, UniProt P22607, G697C); experiment: KINOMEscan; assay type: binding; conditions: read-out: %Ctrl @ 1000 nM
T11 construct: purchased DiscoveRx KINOMEscan

CAMKK2 = target: T12, CAMKK2 (Homo sapiens, UniProt Q96RR4); experiment: KINOMEscan; assay type: binding; conditions: read-out: %Ctrl @ 1000 nM
T12 construct: purchased DiscoveRx KINOMEscan

FLT3(N841I) = target: T13, FLT3(N841I) (Homo sapiens, UniProt P36888, N841I); experiment: KINOMEscan; assay type: binding; conditions: read-out: %Ctrl @ 1000 nM
T13 construct: purchased DiscoveRx KINOMEscan

MRCKA = target: T14, MRCKA (Homo sapiens, UniProt Q5VT25); experiment: KINOMEscan; assay type: binding; conditions: read-out: %Ctrl @ 1000 nM
T14 construct: purchased DiscoveRx KINOMEscan

MAP3K1 = target: T15, MAP3K1 (Homo sapiens, UniProt Q13233); experiment: KINOMEscan; assay type: binding; conditions: read-out: %Ctrl @ 1000 nM
T15 construct: purchased DiscoveRx KINOMEscan

AAK1 = target: T16, AAK1 (Homo sapiens, UniProt Q2M2I8); experiment: KINOMEscan; assay type: binding; conditions: read-out: %Ctrl @ 1000 nM
T16 construct: purchased DiscoveRx (KINOMEscan service)

YANK3 = target: T17, YANK3 (Homo sapiens, UniProt Q86UX6); experiment: KINOMEscan; assay type: binding; conditions: read-out: %Ctrl @ 1000 nM
T17 construct: purchased DiscoveRx KINOMEscan

SMYD2 = SMYD2 (Homo sapiens, UniProt Q9NRG4); experiment: Ex vivo methylation detection by dot blot (AHNAK) in SMYD2-overexpressing KYSE-150 xenografts; parameters: expressed in transfected cells; species or system mouse; conditions: 3 days
NEK4 = target: T18, NEK4 (Homo sapiens, UniProt P51957); experiment: KINOMEscan; assay type: binding; conditions: read-out: %Ctrl @ 1000 nM
T18 construct: purchased DiscoveRx KINOMEscan

DYRK1B = target: T19, DYRK1B (Homo sapiens, UniProt Q9Y463); experiment: KINOMEscan; assay type: binding; conditions: read-out: %Ctrl @ 1000 nM
T19 construct: purchased DiscoveRx KINOMEscan

PCTK2 = target: T20, PCTK2 (Homo sapiens, UniProt Q00537); experiment: KINOMEscan; assay type: binding; conditions: read-out: %Ctrl @ 1000 nM
T20 construct: purchased DiscoveRx KINOMEscan

PIK3CG = target: T21, PIK3CG (Homo sapiens, UniProt P48736); experiment: KINOMEscan; assay type: binding; conditions: read-out: %Ctrl @ 1000 nM
T21 construct: purchased DiscoveRx KINOMEscan

PKMYT1 = target: T22, PKMYT1 (Homo sapiens, UniProt Q99640); experiment: KINOMEscan; assay type: binding; conditions: read-out: %Ctrl @ 1000 nM
T22 construct: purchased DiscoveRx KINOMEscan

TIE2 = target: T23, TIE2 (Homo sapiens, UniProt Q02763); experiment: KINOMEscan; assay type: binding; conditions: read-out: %Ctrl @ 1000 nM
T23 construct: purchased DiscoveRx KINOMEscan

CAMK2B = target: T24, CAMK2B (Homo sapiens, UniProt Q13554); experiment: KINOMEscan; assay type: binding; conditions: read-out: %Ctrl @ 1000 nM
T24 construct: purchased DiscoveRx KINOMEscan

PIK3CB = target: T25, PIK3CB (Homo sapiens, UniProt P42338); experiment: KINOMEscan; assay type: binding; conditions: read-out: %Ctrl @ 1000 nM
T25 construct: purchased DiscoveRx KINOMEscan

[2] = target: T26, RSK2(Kin.Dom.1-N-terminal) (Homo sapiens, UniProt P51812); experiment: KINOMEscan; assay type: binding; conditions: read-out: %Ctrl @ 1000 nM
T26 construct: RSK2(Kin.Dom.1-N-terminal); purchased DiscoveRx KINOMEscan

FRK = target: T27, FRK (Homo sapiens, UniProt P42685); experiment: KINOMEscan; assay type: binding; conditions: read-out: %Ctrl @ 1000 nM
T27 construct: purchased DiscoveRx KINOMEscan

PDPK1 = target: T28, PDPK1 (Homo sapiens, UniProt O15530); experiment: KINOMEscan; assay type: binding; conditions: read-out: %Ctrl @ 1000 nM
T28 construct: purchased DiscoveRx KINOMEscan

EGFR(L747-T751del,Sins) = target: T29, EGFR(L747-T751del,Sins) (Homo sapiens, UniProt P00533, DEL747-750/T751S); experiment: KINOMEscan; assay type: binding; conditions: read-out: %Ctrl @ 1000 nM
T29 construct: purchased DiscoveRx KINOMEscan

MAPKAPK5 = target: T30, MAPKAPK5 (Homo sapiens, UniProt Q8IW41); experiment: KINOMEscan; assay type: binding; conditions: read-out: %Ctrl @ 1000 nM
T30 construct: purchased DiscoveRx KINOMEscan

p38-beta = target: T31, p38-beta (Homo sapiens, UniProt Q15759); experiment: KINOMEscan; assay type: binding; conditions: read-out: %Ctrl @ 1000 nM
T31 construct: purchased DiscoveRx KINOMEscan

[3] = target: T32, ABL1(H396P)-nonphosphorylated (Homo sapiens, UniProt P00519, H396P); experiment: KINOMEscan; assay type: binding; conditions: read-out: %Ctrl @ 1000 nM
T32 construct: purchased DiscoveRx (KINOMEscan service)

AKT3 = target: T33, AKT3 (Homo sapiens, UniProt Q9Y243); experiment: KINOMEscan; assay type: binding; conditions: read-out: %Ctrl @ 1000 nM
T33 construct: purchased DiscoveRx KINOMEscan

QSK = target: T34, QSK (Homo sapiens, UniProt Q9Y2K2); experiment: KINOMEscan; assay type: binding; conditions: read-out: %Ctrl @ 1000 nM
T34 construct: purchased DiscoveRx KINOMEscan

[4] = target: T35, ABL1(F317L)-nonphosphorylated (Homo sapiens, UniProt P00519, F317L); experiment: KINOMEscan; assay type: binding; conditions: read-out: %Ctrl @ 1000 nM
T35 construct: purchased DiscoveRx (KINOMEscan service)

NEK2 = target: T36, NEK2 (Homo sapiens, UniProt P51955); experiment: KINOMEscan; assay type: binding; conditions: read-out: %Ctrl @ 1000 nM
T36 construct: purchased DiscoveRx KINOMEscan

TLK1 = target: T37, TLK1 (Homo sapiens, UniProt Q9UKI8); experiment: KINOMEscan; assay type: binding; conditions: read-out: %Ctrl @ 1000 nM
T37 construct: purchased DiscoveRx KINOMEscan

PYK2 = target: T38, PYK2 (Homo sapiens, UniProt Q14289); experiment: KINOMEscan; assay type: binding; conditions: read-out: %Ctrl @ 1000 nM
T38 construct: purchased DiscoveRx KINOMEscan

INSR = target: T39, INSR (Homo sapiens, UniProt P06213); experiment: KINOMEscan; assay type: binding; conditions: read-out: %Ctrl @ 1000 nM
T39 construct: purchased DiscoveRx KINOMEscan

CDKL3 = target: T40, CDKL3 (Homo sapiens, UniProt Q8IVW4); experiment: KINOMEscan; assay type: binding; conditions: read-out: %Ctrl @ 1000 nM
T40 construct: purchased DiscoveRx KINOMEscan

SMYD2, sequence (Q9NRG4 whole entry): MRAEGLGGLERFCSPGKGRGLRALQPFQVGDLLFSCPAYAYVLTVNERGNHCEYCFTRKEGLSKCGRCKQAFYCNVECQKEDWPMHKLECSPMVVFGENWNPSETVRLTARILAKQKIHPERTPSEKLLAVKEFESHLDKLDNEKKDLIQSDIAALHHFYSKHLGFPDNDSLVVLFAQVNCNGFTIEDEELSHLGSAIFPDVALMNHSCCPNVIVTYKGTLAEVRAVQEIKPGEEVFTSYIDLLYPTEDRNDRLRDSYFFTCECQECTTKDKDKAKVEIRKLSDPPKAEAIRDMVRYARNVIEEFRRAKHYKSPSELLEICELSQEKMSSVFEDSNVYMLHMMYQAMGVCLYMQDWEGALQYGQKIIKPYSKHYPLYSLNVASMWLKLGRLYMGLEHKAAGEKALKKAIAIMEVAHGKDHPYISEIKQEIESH
T7 sequence (Q15139 whole entry): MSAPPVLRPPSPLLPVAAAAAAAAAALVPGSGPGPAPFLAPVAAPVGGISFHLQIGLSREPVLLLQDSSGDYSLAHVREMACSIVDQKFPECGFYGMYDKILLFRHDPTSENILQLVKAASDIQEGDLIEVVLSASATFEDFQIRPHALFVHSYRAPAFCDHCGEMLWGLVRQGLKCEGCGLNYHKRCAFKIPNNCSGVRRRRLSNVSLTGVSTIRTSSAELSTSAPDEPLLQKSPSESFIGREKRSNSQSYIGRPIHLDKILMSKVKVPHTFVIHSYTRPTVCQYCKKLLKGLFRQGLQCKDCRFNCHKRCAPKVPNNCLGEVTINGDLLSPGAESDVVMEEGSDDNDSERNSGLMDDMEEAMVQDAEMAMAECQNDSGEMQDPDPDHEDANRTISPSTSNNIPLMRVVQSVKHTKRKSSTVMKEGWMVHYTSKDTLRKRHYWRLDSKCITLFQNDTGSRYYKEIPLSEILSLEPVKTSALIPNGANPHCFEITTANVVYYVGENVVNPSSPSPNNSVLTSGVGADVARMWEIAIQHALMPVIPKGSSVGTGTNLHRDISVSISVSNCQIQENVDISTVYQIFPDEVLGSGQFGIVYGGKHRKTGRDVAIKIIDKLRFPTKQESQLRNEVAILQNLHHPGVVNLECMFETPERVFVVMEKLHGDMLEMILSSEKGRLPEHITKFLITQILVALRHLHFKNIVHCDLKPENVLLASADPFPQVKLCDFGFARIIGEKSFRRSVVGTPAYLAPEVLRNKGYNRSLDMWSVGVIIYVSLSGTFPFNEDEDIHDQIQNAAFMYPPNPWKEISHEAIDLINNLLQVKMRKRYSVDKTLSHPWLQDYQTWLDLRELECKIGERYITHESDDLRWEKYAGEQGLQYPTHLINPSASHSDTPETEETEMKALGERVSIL
T3 sequence (Q56UN5 whole entry): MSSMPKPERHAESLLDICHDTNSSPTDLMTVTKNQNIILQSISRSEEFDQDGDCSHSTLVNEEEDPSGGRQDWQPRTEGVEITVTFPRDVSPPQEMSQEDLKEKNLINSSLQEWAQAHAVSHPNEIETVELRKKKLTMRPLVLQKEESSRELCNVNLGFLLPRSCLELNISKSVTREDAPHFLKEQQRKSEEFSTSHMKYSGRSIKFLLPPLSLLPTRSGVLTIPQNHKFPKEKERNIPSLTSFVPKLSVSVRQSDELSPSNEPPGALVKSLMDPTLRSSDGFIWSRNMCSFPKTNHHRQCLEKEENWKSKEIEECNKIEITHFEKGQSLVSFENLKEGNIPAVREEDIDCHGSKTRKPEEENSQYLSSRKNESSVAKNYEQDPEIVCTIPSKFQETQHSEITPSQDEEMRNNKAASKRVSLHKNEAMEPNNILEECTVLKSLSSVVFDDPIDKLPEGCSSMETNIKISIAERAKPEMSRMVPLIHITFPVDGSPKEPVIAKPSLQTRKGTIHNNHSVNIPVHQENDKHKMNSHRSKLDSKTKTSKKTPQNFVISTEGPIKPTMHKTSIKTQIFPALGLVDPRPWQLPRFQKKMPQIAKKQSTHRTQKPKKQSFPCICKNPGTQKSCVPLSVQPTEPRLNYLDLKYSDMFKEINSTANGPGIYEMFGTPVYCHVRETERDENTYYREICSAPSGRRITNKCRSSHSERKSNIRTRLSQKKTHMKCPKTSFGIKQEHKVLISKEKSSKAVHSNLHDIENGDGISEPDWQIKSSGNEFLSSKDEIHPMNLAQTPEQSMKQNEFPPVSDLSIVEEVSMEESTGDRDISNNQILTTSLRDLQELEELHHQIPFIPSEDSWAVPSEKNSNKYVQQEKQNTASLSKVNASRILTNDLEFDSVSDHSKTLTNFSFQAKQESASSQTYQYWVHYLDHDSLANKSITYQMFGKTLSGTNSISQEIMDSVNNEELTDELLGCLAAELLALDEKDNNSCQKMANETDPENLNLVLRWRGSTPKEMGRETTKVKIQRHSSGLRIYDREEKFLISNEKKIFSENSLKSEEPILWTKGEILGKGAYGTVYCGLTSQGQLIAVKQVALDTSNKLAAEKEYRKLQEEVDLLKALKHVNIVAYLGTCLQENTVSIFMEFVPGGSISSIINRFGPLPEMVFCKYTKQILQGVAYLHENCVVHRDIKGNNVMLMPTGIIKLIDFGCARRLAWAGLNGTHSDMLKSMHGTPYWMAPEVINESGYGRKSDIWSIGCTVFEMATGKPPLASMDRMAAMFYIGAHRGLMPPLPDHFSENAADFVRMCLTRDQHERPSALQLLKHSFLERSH
T12 sequence (Q96RR4 whole entry): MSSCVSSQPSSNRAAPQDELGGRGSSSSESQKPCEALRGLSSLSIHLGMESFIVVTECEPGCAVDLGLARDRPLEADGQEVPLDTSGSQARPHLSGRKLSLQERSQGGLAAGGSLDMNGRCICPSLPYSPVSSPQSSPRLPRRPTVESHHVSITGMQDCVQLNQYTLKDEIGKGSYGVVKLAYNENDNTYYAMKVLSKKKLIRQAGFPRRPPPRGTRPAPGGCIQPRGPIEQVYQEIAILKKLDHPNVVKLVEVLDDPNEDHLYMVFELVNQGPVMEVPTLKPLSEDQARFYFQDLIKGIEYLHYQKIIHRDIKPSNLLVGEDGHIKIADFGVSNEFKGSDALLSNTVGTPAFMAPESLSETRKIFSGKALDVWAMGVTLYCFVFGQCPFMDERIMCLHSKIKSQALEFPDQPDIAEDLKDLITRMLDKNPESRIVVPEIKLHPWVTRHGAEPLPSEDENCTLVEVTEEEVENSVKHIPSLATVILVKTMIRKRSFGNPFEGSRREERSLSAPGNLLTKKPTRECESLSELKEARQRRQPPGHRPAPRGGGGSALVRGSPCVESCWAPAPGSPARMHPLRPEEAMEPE
T31 sequence (Q15759 whole entry): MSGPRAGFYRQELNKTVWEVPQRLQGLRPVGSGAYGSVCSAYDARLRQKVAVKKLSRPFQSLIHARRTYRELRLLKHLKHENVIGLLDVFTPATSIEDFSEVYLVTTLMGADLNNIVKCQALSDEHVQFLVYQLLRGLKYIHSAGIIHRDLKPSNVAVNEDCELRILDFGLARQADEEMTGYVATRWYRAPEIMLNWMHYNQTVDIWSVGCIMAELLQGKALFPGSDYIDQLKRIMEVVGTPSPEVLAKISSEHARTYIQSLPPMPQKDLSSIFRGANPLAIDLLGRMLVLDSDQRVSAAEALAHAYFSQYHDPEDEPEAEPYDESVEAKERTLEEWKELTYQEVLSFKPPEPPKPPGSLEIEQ
T27 sequence (P42685 whole entry): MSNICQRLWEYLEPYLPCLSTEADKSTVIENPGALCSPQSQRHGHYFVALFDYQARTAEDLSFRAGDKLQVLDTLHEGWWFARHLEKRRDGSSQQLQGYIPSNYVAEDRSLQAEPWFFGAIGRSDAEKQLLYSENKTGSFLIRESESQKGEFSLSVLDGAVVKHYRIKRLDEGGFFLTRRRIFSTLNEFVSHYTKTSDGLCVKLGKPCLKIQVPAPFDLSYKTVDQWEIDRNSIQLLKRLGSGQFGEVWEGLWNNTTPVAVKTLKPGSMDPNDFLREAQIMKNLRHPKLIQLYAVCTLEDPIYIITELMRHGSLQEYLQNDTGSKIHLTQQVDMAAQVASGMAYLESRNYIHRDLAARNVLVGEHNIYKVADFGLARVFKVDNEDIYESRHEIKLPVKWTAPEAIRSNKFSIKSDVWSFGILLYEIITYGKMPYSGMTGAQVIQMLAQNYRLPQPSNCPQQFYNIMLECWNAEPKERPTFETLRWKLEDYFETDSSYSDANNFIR
T11 sequence (P22607 23-806 G697C): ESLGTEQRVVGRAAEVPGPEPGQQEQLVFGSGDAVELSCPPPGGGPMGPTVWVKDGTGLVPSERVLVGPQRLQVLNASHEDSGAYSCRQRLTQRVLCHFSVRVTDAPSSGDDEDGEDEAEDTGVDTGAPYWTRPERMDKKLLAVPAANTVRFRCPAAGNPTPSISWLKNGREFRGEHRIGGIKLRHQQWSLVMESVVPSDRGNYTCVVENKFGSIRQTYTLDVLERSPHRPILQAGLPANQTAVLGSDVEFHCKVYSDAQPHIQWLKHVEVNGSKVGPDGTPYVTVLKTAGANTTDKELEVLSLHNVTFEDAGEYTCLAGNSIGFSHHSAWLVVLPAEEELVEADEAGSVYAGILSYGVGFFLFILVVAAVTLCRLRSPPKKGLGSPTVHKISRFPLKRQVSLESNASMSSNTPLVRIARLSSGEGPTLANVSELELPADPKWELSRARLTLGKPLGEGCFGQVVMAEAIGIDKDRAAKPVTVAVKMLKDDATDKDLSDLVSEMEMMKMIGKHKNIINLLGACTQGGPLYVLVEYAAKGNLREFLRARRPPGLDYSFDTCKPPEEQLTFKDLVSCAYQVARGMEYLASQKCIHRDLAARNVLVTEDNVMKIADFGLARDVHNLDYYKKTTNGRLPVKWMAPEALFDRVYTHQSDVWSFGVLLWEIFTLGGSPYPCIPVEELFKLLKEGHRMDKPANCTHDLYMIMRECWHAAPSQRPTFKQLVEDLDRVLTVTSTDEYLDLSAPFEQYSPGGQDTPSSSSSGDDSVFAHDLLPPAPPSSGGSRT

In the case of CCN(C(=O)CO)[C@H]1CN(/C(=N\C#N)Nc2cccc(OC(F)F)c2)N=C1c1ccc(Cl)c(Cl)c1 [(S)-4], the remaining binding at 1 µM (TRKC) is reported as 55%, the remaining binding at 1 µM (VEGFR2) is reported as 100% and the remaining binding at 1 µM (YSK4) is reported as 93%. For the same molecule, the remaining binding at 1 µM (EPHB6) was 100%, the remaining binding at 1 µM [1] was 85% and the remaining binding at 1 µM (CDC2L2) was 92%. The remaining binding at 1 µM (PRKD1) was 86%, the remaining binding at 1 µM (GCN2(Kin.Dom.2,S808G)) was 100% and the remaining binding at 1 µM (BMPR1A) was 100%. It also gave a remaining binding at 1 µM (ADCK3) of 98%, a remaining binding at 1 µM (FGFR3(G697C)) of 75% and a remaining binding at 1 µM (CAMKK2) of 84%. The remaining binding at 1 µM (FLT3(N841I)) was 95%, the remaining binding at 1 µM (MRCKA) was 93% and the remaining binding at 1 µM (MAP3K1) was 100%. For the same molecule, the remaining binding at 1 µM (AAK1) was 78%, the remaining binding at 1 µM (YANK3) was 100% and the “Ex vivo AHNAK methylation in tumors” value (SMYD2; 10 mg/kg po qd) was “no significant effect”. The “Ex vivo AHNAK methylation in tumors” value (SMYD2; 100 mg/kg po qd) was “most significant effects”, the “Ex vivo AHNAK methylation in tumors” value (SMYD2; doses starting from 30 mg/kg po qd) was “significantly reduced” and the remaining binding at 1 µM (NEK4) was 100%. The remaining binding at 1 µM (DYRK1B) was 74%, the remaining binding at 1 µM (PCTK2) was 91% and the remaining binding at 1 µM (PIK3CG) was 90%. It also gave a remaining binding at 1 µM (PKMYT1) of 100%, a remaining binding at 1 µM (TIE2) of 100% and a remaining binding at 1 µM (CAMK2B) of 100%. It also gave a remaining binding at 1 µM (PIK3CB) of 100%, a remaining binding at 1 µM [2] of 99% and a remaining binding at 1 µM (FRK) of 77%. It also gave a remaining binding at 1 µM (PDPK1) of 59%, a remaining binding at 1 µM (EGFR(L747-T751del,Sins)) of 70% and a remaining binding at 1 µM (MAPKAPK5) of 100%. The remaining binding at 1 µM (p38-beta) was 100%, the remaining binding at 1 µM [3] was 92% and the remaining binding at 1 µM (AKT3) was 100%. It also gave a remaining binding at 1 µM (QSK) of 94%, a remaining binding at 1 µM [4] of 100% and a remaining binding at 1 µM (NEK2) of 99%. The remaining binding at 1 µM (TLK1) was 100%, the remaining binding at 1 µM (PYK2) was 100% and the remaining binding at 1 µM (INSR) was 78%. For the same molecule, the remaining binding at 1 µM (CDKL3) was 96%.
